Assay results reported in patent publication US5045544A, “N'-alkyl-spiro-isoquinoline-pyrrolidine tetrones and analogs thereof useful as aldose reductase inhibitors” (American Home Products Corporation, priority 1990, dated 1991).
Values belong to the compound of their own block, whether it stands above or below them.

Assays:
[1] = target: T1, aldose reductase (Bos taurus, UniProt P16116); test: in vitro aldose reductase inhibition (modified Hayman and Kinoshita procedure, enzyme from bovine lens); assay type: biochemical; settings: for inhibition at 1 µM: 10^-6 M; for inhibition at 10 µM: 10^-5 M
T1 construct: preparation of the enzyme from bovine lens; from tissue; host or cells: bovine lens
Procedure: (§1) (c) The polyol determination was performed by a modification of the procedure of M. Kraml and L. Cosyns, Clin. Biochem., 2, 373 (1969). Only two minor reagent changes were made: (a) the rinsing mixture was an aqueous 5% (w/v) trichloroacetic acid solution and (b) the stock solution was prepared by dissolving 25 mg of dulcitol in 100 ml of an aqueous trichloroacetic acid solution. [N.B.: For each experiment the average value found in the tissue from rats fed the glucose diet was substracted from the individual values found in the corresponding tissue in galactose-fed rats to obtain the amount of polyol accumulated.] The aldose reductase inhibiting effects of the compounds of formula (I) were also tested by employing an in vitro testing procedure similar to that described by S. Hayman and J. H. Kinoshita, J. Biol. Chem., 240, 877 (1965). In the present case the procedure of Hayman and Kinoshita was modified in that the final chromatography step was omitted in the preparation of the enzyme from bovine lens.

[2] = tested on: diaphragm; test: dulcitol (galactitol) accumulation in the diaphragm of galactose-fed (galactosemic) rats; assay type: in vivo, rat (Sprague-Dawley); settings: 4 days
Description: (§2) The aldose reductase inhibiting property of the compounds of this invention and the utilization of the compounds in preventing, diminishing and alleviating diabetic complications are demonstrable in experiments using galactosemic rats, see Dvornik et al., Science, 182, 1146 (1973). Such experiments are exemplified hereinbelow after the listing of the following general comments pertaining to these experiments:
(§3) (a) Four or more groups of six male rats, 50-70 g, Sprague-Dawley strain, were used. The first group, the control group, was fed a mixture of laboratory chow (rodent Laboratory Chow, Purina) and glucose at 20% (w/w %) concentration. An untreated galactosemic group was fed a similar diet in which galactose was substituted for glucose. The third group was fed a diet prepared by mixing a given amount of the test compound with the galactose containing diet. The concentration of galactose in the diet of the treated groups was the same as that for the untreated galactosemic group.
(§4) (b) After four days, the animals were killed by euthanization. Both the lens and sciatic nerve were removed, weighed and stored frozen for polyol determination.
as §1
(§5) The figures under L, N, and D represent the percentage decrease of dulcitol accumulation in the tissues of the lens, sciatic nerve, and diaphragm, respectively, for treated rats as compared to untreated rats.

[3] = tested on: sciatic nerve; test: dulcitol (galactitol) accumulation in the sciatic nerve of galactose-fed (galactosemic) rats; assay type: in vivo, rat (Sprague-Dawley); settings: 4 days
Description: as §2, §3, §4, §1, §5

[4] = tested on: lens; test: dulcitol (galactitol) accumulation in the lens of galactose-fed (galactosemic) rats; assay type: in vivo, rat (Sprague-Dawley); settings: 10.2 mg/kg in diet, 4 days
Description: as §2, §3, §4
(c) The polyol determination was performed by a modification of the procedure of M. Kraml and L. Cosyns, Clin. Biochem., 2, 373 (1969). […]

- inhibition at 1 µM [1]: 0%
SMILES: CCN1C(=O)CC2(C1=O)C(=O)N(Cc1nc3cc(C(F)(F)F)ccc3s1)C(=O)c1ccc(F)cc12 (centres unmarked) [R1=F, R4=C2 H5, R5=CF3, 1'-ethyl-6-fluoro-2-[[5-(trifluoromethyl)-2-benzothiazolyl]methyl]spiro[isoquinoline-4(1H),3'-pyrrolidine]-1,2',3,5'(2H)-tetrone]
- % Lowering Galactitol Accumulation In Vivo, (%) D ([2]; 10 mg/kg/day in diet): 59%

- inhibition at 1 µM [1]: 0%
SMILES: CN1C(=O)CC2(C1=O)C(=O)N(Cc1nc3cc(C(F)(F)F)ccc3s1)C(=O)c1ccccc12 (centres unmarked) [R1=H, R4=CH3, R5=CF3, 2-[[5-(trifluoromethyl)-2-benzothiazolyl]methyl]-1'-methylspiro[isoquinoline-4(1H),3'-pyrrolidine]-1,2',3,5'(2H)-tetrone]
- % Lowering Galactitol Accumulation In Vivo, (%) D ([2]; 9.5 mg/kg/day in diet): 100%
- % Lowering Galactitol Accumulation In Vivo, (%) N ([3]; 9.5 mg/kg/day in diet): 82%

Continued, compound first:

SMILES: CCN1C(=O)CC2(C1=O)C(=O)N(Cc1ccc(Br)cc1F)C(=O)c1ccc(F)cc12 (centres unmarked) [R1=F, R4=CH2 CH3, 2-[(4-bromo-2-fluorophenyl)methyl]-1'-ethyl-6-fluorospiro[isoquinoline-4(1H),3'-pyrrolidine]-1,2',3,5'(2H)-tetrone]
- inhibition at 10 µM [1]: 0%
- % lowering dulcitol accumulation in vivo, % D ([2]; 0.5 mg/kg in diet): 65%
- % lowering dulcitol accumulation in vivo, % D ([2]; 1.0 mg/kg in diet): 84%
- % lowering dulcitol accumulation in vivo, % N ([3]; 0.5 mg/kg in diet): 19%
- % lowering dulcitol accumulation in vivo, % N ([3]; 1.0 mg/kg in diet): 74%

SMILES: CCN1C(=O)CC2(C1=O)C(=O)N(Cc1ccc(Br)cc1F)C(=O)c1ccccc12 (centres unmarked) [R1=H, R4=CH2 CH3, 2-[(4-bromo-2-fluorophenyl)methyl]-1'-ethylspiro[isoquinoline-4(1H), 3'-pyrrolidine]-1,2',3,5'(2H)-tetrone]
- inhibition at 10 µM [1]: 0%
- % lowering dulcitol accumulation in vivo, % D ([2]; 0.5 mg/kg in diet): 56%
- % lowering dulcitol accumulation in vivo, % D ([2]; 0.9 mg/kg in diet): 73%
- % lowering dulcitol accumulation in vivo, % N ([3]; 0.5 mg/kg in diet): 37%
- % lowering dulcitol accumulation in vivo, % N ([3]; 0.9 mg/kg in diet): 65%

SMILES: CN1C(=O)CC2(C1=O)C(=O)N(Cc1ccc(Br)cc1F)C(=O)c1ccccc12 (centres unmarked) [R1=H, R4=CH3, 2-[(4-bromo-2-fluorophenyl)methyl]-1'-methylspiro[isoquinoline-4(1H), 3'-pyrrolidine]-1,2',3,5'(2H)-tetrone]
- % lowering dulcitol accumulation in vivo, % L [4]: 31%
- inhibition at 10 µM [1]: 0%
- % lowering dulcitol accumulation in vivo, % D ([2]; 0.5 mg/kg in diet): 61%
- % lowering dulcitol accumulation in vivo, % D ([2]; 1.1 mg/kg in diet): 75%
- % lowering dulcitol accumulation in vivo, % D ([2]; 10.2 mg/kg in diet): 94%
- % lowering dulcitol accumulation in vivo, % N ([3]; 0.5 mg/kg in diet): 50%
- % lowering dulcitol accumulation in vivo, % N ([3]; 1.1 mg/kg in diet): 76%
- % lowering dulcitol accumulation in vivo, % N ([3]; 10.2 mg/kg in diet): 95%
